The target in one test is trypsin. Description: inhibition of the amidolytic activity of trypsin (chromogenic substrate S-2251). Format: biochemical. As to conditions: substrate S-2251, 200 and 750 μM, otherwise analogous to thrombin.
In the next test the target is human thrombin (Homo sapiens, UniProt P00734). In words: inhibition of the amidolytic activity of thrombin (chromogenic substrate S-2238). Format: biochemical. As to conditions: for Ki: human thrombin 0.5 nM, substrate S-2238, pH 7.8, room temperature; for q (ratio of the inhibition of trypsin to the inhibition of thrombin): specificity: Ki trypsin / Ki thrombin. The protocol: A differential inhibition of thrombin and other serine proteases by the above compounds is desirable in order to obtain compounds having as high a specificity as possible and at the same time to avoid possible side-effects.
Specific chromogenic peptide substrates can be used to determine the inhibition of the catalytic activity of the above proteases. The inhibition of the amidolytic activity of thrombin and trypsin by the above guanidines was determined as described hereinafter.
The measurements were carried out on microtitre plates at room temperature. For this, in each well of the plate 150 μl of buffer (50 mM Tris, 100 mM NaCl, 0.1% polyethylene glycol; pH 7.8) were mixed with 50 μl of the inhibitor dissolved in DMSO and diluted in the buffer, and 25 μl of human thrombin (0.5 nM final conc.) were added. After incubation for 10 minutes the reaction was started by the addition of chromogenic substrate S-2238 (H-D-Phe-Pip-Arg-paranitroaniline from Kabivitrum; 10 or 50 μm final conc.) and the hydrolysis of the substrate was followed spectrophotometrically on a kinetic microtiter plate reader for 5 minutes. After graphical presentation of the inhibition curves the Ki values were determined according to the method described in Blochem. J. 55, 1955, 170-171.

In general, Ki refers to a dissociation constant, usually derived from enzyme kinetics or from competition with a known ligand. `CC(=O)N[C@@H](Cc1c[nH]c2ccccc12)C(=O)N[C@@H](CC(=O)NC[C@@H]1CCCN(C(=N)N)C1)C(=O)N(CCNC(=O)c1cnccn1)C1CC1` [Example 21c, (S)-2-[(S)-2-acetylamino-3-indol-3-yl-propionylamino]-N4-[(S)-1-(amino-imino-methyl)-piperidin-3-ylmethyl]-N1-cyclopropyl-N1-(2-pyrazin-2-ylcarbonylamino-ethyl)-succinamide]: the affinity on trypsin, expressed as Ki, was 15 µM. Also, at human thrombin, the Ki worked out at 0.0061 µM and the “q (ratio of the inhibition of trypsin to the inhibition of thrombin)” value is 2459.

Turning to `CCCCCC(=O)N[C@@H](CC(=O)NC[C@@H]1CCCN(C(=N)N)C1)C(=O)N(CC(=O)OCC)C1CC1` [Example 13b, ethyl [[(S)-3-[(S)-1-(amino-imino-methyl)-piperidin-3-ylmethylcarbamoyl]-2-hexanoylamino-propionyl]-cyclopropyl-amino]acetate], the affinity on trypsin corresponds to a Ki of 75 µM. At human thrombin, the Ki worked out at 0.41 µM and the “q (ratio of the inhibition of trypsin to the inhibition of thrombin)” value is on record as 183.

At trypsin, `CCOC(=O)CCN(C(=O)[C@H](CC(=O)NCC1CN(C(=N)N)CCO1)NC(=O)OCc1ccccc1)C1CC1` (stereo partly drawn) [Example 5c, ethyl 3-[[(S)-3-[4-(amino-imino-methyl)-morpholin-2-ylmethylcarbamoyl]-2-benzyloxycarbonylamino-propionyl]-cyclopropyl-amino]-propionate] registered a Ki of 29 µM. In addition, at human thrombin, the affinity, expressed as Ki, was 0.054 µM and the “q (ratio of the inhibition of trypsin to the inhibition of thrombin)” value is reported as 537.

For the compound `N=C(N)N1CCC[C@@H](CNC(=O)C[C@H](NS(=O)(=O)N2CCOCC2)C(=O)N(CCNC(=O)c2cnccn2)C2CC2)C1` [Example 24, (S)-N4-[(S)-1-(amino-imino-methyl)-piperidin-3-ylmethyl]-N1-cyclopropyl-2-morpholin-4-ylsulphonylamino-N1-(2-pyrazin-2-ylcarbonylamino-ethyl)-succinamide], at trypsin, affinity was put at a Ki of 7.1 µM. Also, on human thrombin, affinity was put at a Ki of 0.0012 µM and the “q (ratio of the inhibition of trypsin to the inhibition of thrombin)” value is 5917.

Take `CC(C)(C)OC(=O)N[C@@H](CC(=O)NC[C@@H]1CCCN(C(=N)N)C1)C(=O)N(CCNC(=O)c1cnccn1)C1CC1` [Example 19, (S)-N4-[(S)-1-(amino-imino-methyl)-piperidin-3-yimethyl]-2-tert-butoxycarbonylamino-N1-cyclopropyl-N1-(2-pyrazin-2-ylcarbonylamino)-succinamide]: affinity at trypsin was put at a Ki of 3.1 µM. On human thrombin, the Ki was determined as 0.0069 µM and the “q (ratio of the inhibition of trypsin to the inhibition of thrombin)” value came out at 449.

As for `N=C(N)N1CCC[C@@H](CNC(=O)C[C@H](NC(=O)OCc2ccccc2)C(=O)N(CC(=O)O)C2CC2)C1` [Example 3, [[(S)-3-[(S)-1-(amino-imino-methyl)-piperidin-3-ylmethylcarbamoyl]-2-benzyloxycarbonylamino-propionyl]-cyclopropylamino]-acetic acid], the affinity at trypsin, expressed as Ki, was 19 µM. On human thrombin, the Ki turned out to be 0.012 µM and the “q (ratio of the inhibition of trypsin to the inhibition of thrombin)” value is 1583.

`CCOC(=O)CN(C(=O)[C@H](CC(=O)NCC1CN(C(=N)N)CCO1)NC(=O)OCc1ccccc1)C1CC1` (stereo partly drawn) [Example 5a, ethyl [[(S)-3-[4-(amino-imino-methyl)-morpholin-2-ylmethylcarbamoyl]-2-benzyloxycarbonylaminopropionyl]-cyclopropyl-amino]-acetate] returned a Ki at trypsin of 231 µM. In addition, on human thrombin, the Ki is 8.9 µM and the “q (ratio of the inhibition of trypsin to the inhibition of thrombin)” value worked out at 26.

Take `N=C(N)N1CCC[C@@H](CNC(=O)C[C@H]2C(=O)N(C3CCCC3)CC(=O)N2S(=O)(=O)c2ccc3ccccc3c2)C1` [Example 16, N-[(S)-1-(amino-imino-methyl)-piperidin-3-ylmethyl]-2[(S)-4-cyclopentyl-1-naphthalen-2-ylsulphonyl-3,6-dioxopiperazin-2-yl]-acetamide]: the values for the Ki at trypsin and on human thrombin were 14 µM and 0.11 µM, respectively. For the same compound, at human thrombin, the “q (ratio of the inhibition of trypsin to the inhibition of thrombin)” value is 127.

On to `CCOC(=O)CN(C(=O)[C@H](CC(=O)NC[C@@H]1CCCN(C(=N)N)C1)NC(=O)OCC1CCCCC1)C1CC1` [Example 7, ethyl [[(S)-3-[(S)-1-(amino-imino-methyl)-piperidin-3-ylmethylcarbamoyl]-2-cyciohexylmethoxycarbonylamino-propionyl]-cyclopropyl-amino]-acetate], for which the Ki at trypsin amounted to 50 µM. In addition, at human thrombin, the Ki amounted to 2 µM and the “q (ratio of the inhibition of trypsin to the inhibition of thrombin)” value is reported as 25.

For the compound `CCCCN(CCC(=O)OCC)C(=O)[C@H](CC(=O)NCC1CN(C(=N)N)CCO1)NC(=O)OCc1ccccc1` (stereo partly drawn) [Example 5d, ethyl 3-[[(S)-3-[4-(amino-imino-methyl)-morpholin-2-ylmethylcarbamoyl]-2-benzyloxycarbonylaminopropionyl]-butyl-amino]-propionate], at trypsin, the Ki is 12 µM. Also, at human thrombin, the Ki was found to be 0.13 µM and the “q (ratio of the inhibition of trypsin to the inhibition of thrombin)” value is listed as 92.

For `N=C(N)N1CCC[C@@H](CNC(=O)C[C@H](NC(=O)Cc2ccccc2)C(=O)N(CC(=O)O)C2CC2)C1` [Example 14e, [[(S)-3-[(S)-1-(amino-imino-methyl)-piperidin-3-ylmethylcarbamoyl]-2-benzylcarbonylamino-propionyl]-cyclopropyl-amino]acetic acid], the affinity at trypsin corresponds to a Ki of 69 µM. In addition, on human thrombin, affinity was put at a Ki of 0.081 µM and the “q (ratio of the inhibition of trypsin to the inhibition of thrombin)” value amounted to 852.

For the compound `CCCCN(CC(=O)O)C(=O)[C@H](CC(=O)NCC1CN(C(=N)N)CCO1)NC(=O)OCc1ccccc1` (stereo partly drawn) [Example 6b, [[(S)-3-[4-(amino-imino-methyl)-morpholin-2-ylmethylcarbamoyl]-2-benzyloxycarbonylamino-propionyl]-butyl-amino]-acetic acid], the affinity on trypsin, expressed as Ki, was 65 µM. Also, on human thrombin, the affinity, expressed as Ki, was 0.0035 µM and the “q (ratio of the inhibition of trypsin to the inhibition of thrombin)” value was determined as 18571.

As to `CCCCCC(=O)N[C@@H](CC(=O)NC[C@@H]1CCCN(C(=N)N)C1)C(=O)N(CC(=O)O)C1CC1` [Example 14b, [[(S)-3-[(S)-1-(amino-imino-methyl)-piperidin-3-ylmethylcarbamoyl]-2-hexanoylamino-propionyl]-cyclopropyl-amino]-acetic acid], at trypsin, affinity was put at a Ki of 25 µM. At human thrombin, the affinity, expressed as Ki, was 0.036 µM and the “q (ratio of the inhibition of trypsin to the inhibition of thrombin)” value turned out to be 694.

For the compound `CCOC(=O)CCN(C(=O)[C@H](CC(=O)NC[C@@H]1CCCN(C(=N)N)C1)NC(=O)OCc1ccccc1)C1CC1` [Example 2a, Ethyl 3-[[(S)-3-[(S)-1-(amino-imino-methyl)-piperidin-3-ylmethylcarbamoyl]-2-benzyloxycarbonylamino-propionyl]-cyclopropylamino]-propionate], at trypsin, the Ki is 29 µM. Also, on human thrombin, the Ki was 0.017 µM and the “q (ratio of the inhibition of trypsin to the inhibition of thrombin)” value turned out to be 1706.

Turning to `CCCCN(CCC(=O)OCC)C(=O)[C@H](CC(=O)NC[C@@H]1CCCN(C(=N)N)C1)NC(=O)OCc1ccccc1` [Example 2c, ethyl 3-[[(S)-3-[(S)-1-(amino-imino-methyl)-piperidin-3-ylmethylcarbamoyl]-2-benzyloxycarbonylamino-propionyl]-butylamino]-propionate], the Ki at trypsin stood at 30 µM. In addition, on human thrombin, the inhibitory constant (Ki) turned out to be 0.077 µM and the “q (ratio of the inhibition of trypsin to the inhibition of thrombin)” value came to 390.

The values above are taken from patent US5559232A, “Carboxamides” (Hoffmann-La Roche Inc., priority 1993, dated 1996).
